Test results taken from patent US5135932A, “2-hydroxypropylamino-alkyl-benzimidazoly-5-yl derivatives and their use in the treatment of heart disease” (Dr. Karl Thomae GmbH, priority 1989, dated 1992).

Assays:
[1] = Antiadrenergic activity: shift of isoprenalin dose-activity curves in guinea-pigs (pA2); format: in vivo, guinea-pig; conditions: averages from 2 to 3 tests; for pA2 heart rate: against heart rate-increasing activity of isoprenalin; for pA2 inotropia: against inotropic activity of isoprenalin (LV-dP/dtmax)
Experimental: (§1) Cardiotonic effect with antiadrenergic activity
(§2) Guinea-pigs (Dunkin-Hartley-Pirbright, male, 450-600 g) were anaesthetised with hexobarbital-sodium (150 mg/kg i.p.). After the animals had become unconscious, a tracheal cannula was inserted and the animals were pitched (van Meel, J. Pharmacol. Methods 31 (1): 1-11 (1985)). The animals were then immediately artificially respirated using a breathing pump. The left ventricular pressure (LVP) was measured with a Millar PR-249 catheter-tip manometer inserted into the left ventricle through the left carotid artery. This pressure signal was differentiated electronically (LV-dP/dtmax) and used as a parameter for inotropia. The arterial blood pressure was recorded by a cannula in the right carotid artery using a Bell & Howell pressure recorder. The heart rate was also measured. The substances were administered through a cannula in the jugular vein.
(§3) The test substances were administered to three animals cumulatively in four doses (0.1 to 3 mg/kg) and the effects on blood pressure, heart rate and LV-dP/dtmax were measured. Three minutes after the last dose of the test substance, isoprenalin was administered intravenously in increasing doses. In this way, a cumulative dose-activity correlation was obtained for isoprenalin in the presence of the test substance. The parameters measured were the increase in heart rate and the LV-dP/dtmax. These dose-activity curves were compared with standard curves for isoprenalin without the test substances. The shift to the right of the dose-activity curves for isoprenalin brought about by the test substances were determined graphically and corresponding pA2 values for the test substances were calculated. (see Tenakin in "Pharmacologic Analysis of Drug Receptor Interaction", Rawen Press 1987, pages 211-212).
(§4) The Table which follows contains the averages from 2 to 3 tests: […]

[2] = test system: Guinea-pigs (Dunkin-Hartley-Pirbright, male); assay: Cardiotonic effect: LV-dP/dtmax and heart rate in anaesthetised guinea-pigs; format: in vivo, guinea-pig; conditions: after a dose of 3 mg/kg i.v., averages from 2 to 3 tests; for change in vivo at 3 mg/kg: Cavia porcellus, iv, read-out: Effects on LV-dP/dtmax % increase
Experimental: as §1, §2, §3, §4

[3] = molecular target: T1, β1 adreno receptor (rat hearts) (Rattus norvegicus, UniProt P18090); assay: Affinity for β-adreno receptors: inhibition of 3H-CGP 12177 binding, receptor preparations from rat hearts (β1); conditions: 200 pM 3H-CGP 12177
T1 construct: receptor preparations from rat hearts (β1); from tissue; host or cells: rat heart membrane preparation
T1 sequence (P18090 whole entry): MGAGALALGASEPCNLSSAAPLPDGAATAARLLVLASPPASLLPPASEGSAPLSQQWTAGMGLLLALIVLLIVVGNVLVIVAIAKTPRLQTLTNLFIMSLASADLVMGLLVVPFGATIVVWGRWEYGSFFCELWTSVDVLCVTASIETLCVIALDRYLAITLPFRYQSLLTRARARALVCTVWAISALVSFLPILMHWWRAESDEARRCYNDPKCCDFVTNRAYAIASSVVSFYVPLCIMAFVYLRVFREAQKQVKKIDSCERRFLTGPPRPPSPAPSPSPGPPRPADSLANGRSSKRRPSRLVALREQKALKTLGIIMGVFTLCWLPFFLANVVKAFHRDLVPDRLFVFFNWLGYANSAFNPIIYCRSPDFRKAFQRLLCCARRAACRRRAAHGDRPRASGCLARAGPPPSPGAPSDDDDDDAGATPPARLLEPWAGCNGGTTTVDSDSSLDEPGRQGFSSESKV
Experimental: (§5) 1. Affinity for β-adreno recectors
(§6) The inhibitory effect on the binding of ^3 H-CGP 12177 was tested on receptor preparations from rat hearts (β1) and rat lungs (β2). The binding assay was carried out with some modifications according to the method of Dammgen et al. (Drug. Res. 35: 383-390 (1985)). The incubation mixture contained aliquots of the membrane preparation in Tris buffer, increasing concentrations of the potential antagonist as well as 200 pM ^3 H-CGP 12177. The bound and free radioligands were separated after the incubation period by rapid filtration through glass fibre filters. The filter-bound radioactivity was determined in a β counter with a counting yield of about 52%. The non-specific binding was determined in the presence of 10^-5 M propranolol.

[4] = molecular target: T2, β2 adreno receptor (rat lungs) (Rattus norvegicus, UniProt P10608); assay: Affinity for β-adreno receptors: inhibition of 3H-CGP 12177 binding, receptor preparations from rat lungs (β2); conditions: 200 pM 3H-CGP 12177
T2 construct: rat lungs (β2); from tissue; host or cells: rat lung membrane preparation
T2 sequence (P10608 whole entry): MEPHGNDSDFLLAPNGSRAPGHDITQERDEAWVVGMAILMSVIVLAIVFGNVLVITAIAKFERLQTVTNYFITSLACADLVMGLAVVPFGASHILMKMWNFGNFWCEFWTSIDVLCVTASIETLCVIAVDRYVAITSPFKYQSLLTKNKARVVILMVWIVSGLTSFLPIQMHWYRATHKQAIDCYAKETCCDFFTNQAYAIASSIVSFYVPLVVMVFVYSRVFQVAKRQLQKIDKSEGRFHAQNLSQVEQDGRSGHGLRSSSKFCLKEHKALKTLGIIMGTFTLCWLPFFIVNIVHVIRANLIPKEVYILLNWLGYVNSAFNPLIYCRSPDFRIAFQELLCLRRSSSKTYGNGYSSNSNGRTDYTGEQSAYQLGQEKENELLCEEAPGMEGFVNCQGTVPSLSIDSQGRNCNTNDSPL
Experimental: as §5, §6

SMILES	pA2 heart rate [1]	pA2 inotropia [1]	change in vivo at 3 mg/kg [2]	Effect on heart rate in beats per minute [2]	IC50 [3]	IC50 [4]
CC(C)OCCOCc1ccc(OCC(O)CNCCOc2ccc(C3=NNC(=O)CC3)cc2Cl)cc1 (centres unmarked) [Substance L, 6-[4-[2-[3-(4-(2-isopropoxyethoxy-methyl)phenoxy)-2-hydroxy-propylamino]ethoxy]-3-chloro-phenyl]-4,5-dihydro-3(2H)-pyridazinone]	6.77	6.23	66%	-51 beats per minute	7.6 nM	600 nM
CC(C)OCCOCc1ccc(OCC(O)CNCCOc2ccc(-c3ccc(=O)[nH]n3)cc2)cc1 (centres unmarked) [Substance G, 6-[4-[2-[3-(4-(2-isopropoxyethoxymethyl)phenoxy)-2-hydroxypropylamino]ethoxy]phenyl]-3(2H)-pyridazinone]	6.38	6.32	38%	-36 beats per minute	53 nM	4400 nM
O=C1CCC(c2ccc(OCCNCC(O)COc3ccc(CCOCC4CC4)cc3)cc2)=NN1 (centres unmarked) [Substance C, 6-[4-[2-[3-(4-(2-cyclopropylmethoxy-ethyl)phenoxy)-2-hydroxy-propylamino]ethoxy]phenyl]-4,5-dihydro-3(2H)-pyridazinone]	7.22	6.76	25%	-51 beats per minute	29 nM	1200 nM
Cc1cc(C2=NNC(=O)CC2)ccc1OCCNCC(O)COc1ccc(CCOCC2CC2)cc1 (centres unmarked) [Substance M, 6-[4-[2-[3-(4-(2-cyclopropylmethoxy-ethyl)phenoxy)-2-hydroxy-propylamino]ethoxy]-3-methyl-phenyl]-4,5-dihydro-3(2H)-pyridazinone]	8.20	7.05	51%	-64 beats per minute	0.5 nM	100 nM
O=C1CCC(c2ccc3c(c2)ncn3CCNCC(O)COc2ccc(CCOCC3CC3)cc2)=NN1 (centres unmarked) [Substance B, 6-[1-[2-[3-(4-(2-cyclopropylmethoxy-ethyl)phenoxy)-2-hydroxy-propylamino]ethyl]benzimidazol-5-yl]-4,5-dihydro-3(2H)-pyridazinone]	6.95	6.83	51%	-47 beats per minute	34 nM	2300 nM
CC(C)OCCOCc1ccc(OCC(O)CNCCOc2ccc(C3=NNC(=O)CC3)cc2)cc1 (centres unmarked) [Substance F, 6-[4-[2-[3-(4-((2-isopropoxyethoxy)methyl)phenoxy)-2-hydroxy-propylamino]ethoxy]phenyl]-4,5-dihydro-3(2H)-pyridazinone]	6.96	7.14	37%	-94 beats per minute	24 nM	7200 nM
O=C1CCC(c2ccc3c(c2)ncn3CCNCC(O)COc2ccc(CCOCC3CCC3)cc2)=NN1 (centres unmarked) [Substance A, 6-[1-[2-[3-(4-(2-cyclobutylmethoxy-ethyl)phenoxy)-2-hydroxy-propylamino]ethyl]benzimidazol-5-yl]-4,5-dihydro-3(2H)-pyridazinone]	8.20	6.30	50%	-23 beats per minute	26 nM	940 nM
O=c1ccc(-c2ccc(OCCNCC(O)COc3ccc(CCOCC4CC4)cc3)cc2)n[nH]1 (centres unmarked) [Substance D, 6-[4-[2-[3-(4-(2-cyclopropylmethoxyethyl)phenoxy)-2-hydroxy-propylamino]ethoxy]phenyl]-3(2H)-pyridazinone]	7.24	6.67	51%	-49 beats per minute	22 nM	1000 nM
CC(C)COCCc1ccc(OCC(O)CNCCCn2cnc3cc(C4=NNC(=O)CC4)ccc32)cc1 (centres unmarked) [Substance H]	> 9.0	8.28	10%	-90 beats per minute	10 nM	19 nM
Cc1cc(C2=NNC(=O)CC2)ccc1OCCCNCC(O)COc1ccc(CCOCC2CC2)cc1 (centres unmarked) [Substance O, 6-[4-[3-[3-(4-(2-cyclopropylmethoxy-ethyl)phenoxy)-2-hydroxy-propylamino]propoxy]-3-methyl-phenyl]-4,5-dihydro-3(2H)-pyridazinone]	7.70	6.44	38%	-116 beats per minute	59 nM	66 nM
Cc1cc(C2=NNC(=O)CC2)ccc1OCCNCC(O)COc1ccc(COCCOC(C)C)cc1 (centres unmarked) [Substance N, 6-[4-[2-[3-(4-(2-isopropoxyethoxy-methyl)phenoxy)-2-hydroxy-propylamino]ethoxy]-3-methyl-phenyl]-4,5-dihydro-3(2H)-pyridazinone]	8.34	7.34	34%	-94 beats per minute	2.6 nM	520 nM
CC(C)COCCc1ccc(OCC(O)CNC(C)(C)Cn2cnc3cc(C4=NNC(=O)CC4)ccc32)cc1 (centres unmarked) [Substance I, 6-[1-[2-[3-(4-(2-isobutoxyethyl)phenoxy)-2-hydroxypropylamino]-2,2-dimethyl-ethyl]benzimidazol-5-yl]-4,5-dihydro-3(2H)-pyridazinone]	7.89	7.17	58%	-59 beats per minute	12 nM	65 nM
O=C1CCC(c2ccc(OCCNCC(O)COc3ccc(CCOCC4CCC4)cc3)cc2)=NN1 (centres unmarked) [Substance E, 6-[4-[2-[3-(4-(2-cyclobutylmethoxy-ethyl)phenoxy)-2-hydroxy-propylamino]ethoxy]phenyl]-4,5-dihydro-3(2H)-pyridazinone]	7.23	6.19	49%	-71 beats per minute	15 nM	1100 nM
Cc1cc(C2=NNC(=O)CC2)ccc1OCCCNCC(O)COc1ccc(CCOCC2CCC2)cc1 (centres unmarked) [Substance P, 6-[4-[3-[3-(4-(2-cyclobutylmethoxy-ethyl)phenoxy)-2-hydroxy-propylamino]propoxy]-3-methyl-phenyl]-4,5-dihydro-3(2H)-pyridazinone]	6.45	5.31	69%	-61 beats per minute	6 nM	220 nM
CC(C)OCCOCc1ccc(OCC(O)CNCCCOc2ccc(C3=NNC(=O)CC3)cc2Cl)cc1 (centres unmarked) [Substance K, 6-[4-[3-[3-(4-(2-isopropoxyethoxy-methyl)phenoxy)-2-hydroxy-propylamino]propoxy]-3-chloro-phenyl]-4,5-dihydro-3(2H)-pyridazinone]	7.52	6.56	11%	-121 beats per minute	10 nM	350 nM
Cc1cc(-c2ccc(=O)[nH]n2)ccc1OCCNCC(O)COc1ccc(COCCOC(C)C)cc1 (centres unmarked) [Substance Q, 6-[4-[2-[3-(4-(2-isopropoxyethoxy-methyl)phenoxy)-2-hydroxy-propylamino]ethoxy]-3-methyl-phenyl]-3(2H)-pyridazinone]	–	–	–	–	2 nM	210 nM
